Laboratory results taken from ChEMBL document CHEMBL3399993, “Design and synthesis of novel quinoline-aminopiperidine hybrid analogues as Mycobacterium tuberculosis DNA gyraseB inhibitors” (Bioorg Med Chem, 2015).
Values after ≈ are worked out from the molar mass of the structure shown.

Legend:
[1] = Cytotoxicity against mouse RAW264.7 cells assessed as inhibition of cell growth at 50 uM after 48 hrs by MTT assay; assay type: cell-based; settings: read-out: GI
[2] = system: Mycobacterium tuberculosis; test: Antimycobacterial activity against Mycobacterium tuberculosis H37Rv ATCC 27294 incubated for 7 days by microplate alamar blue assay method; assay type: functional; settings: H37Rv ATCC 27294, 168 h
[3] = target: DNA gyrase subunit A/DNA gyrase subunit B (Mycobacterium tuberculosis (strain ATCC 25618 / H37Rv), UniProt P9WG45+P9WG47); test: Inhibition of Mycobacterium tuberculosis GyrA/GyrB using relaxed pBR322 substrate incubated for 30 mins by ethidium bromide staining and electrophoresis based DNA supercoiling assay
[4] = target: DNA gyrase subunit B (Mycobacterium smegmatis, UniProt P0C559); test: Inhibition of Mycobacterium smegmatis GyrB ATPase activity expressed in Escherichia coli BL21 (DE3) pLysS cells after 100 mins by inorganic phosphate release detection based malachite green reagent assay; parameters: species or system Mycolicibacterium smegmatis
DNA gyrase subunit B, sequence (P0C559 whole entry): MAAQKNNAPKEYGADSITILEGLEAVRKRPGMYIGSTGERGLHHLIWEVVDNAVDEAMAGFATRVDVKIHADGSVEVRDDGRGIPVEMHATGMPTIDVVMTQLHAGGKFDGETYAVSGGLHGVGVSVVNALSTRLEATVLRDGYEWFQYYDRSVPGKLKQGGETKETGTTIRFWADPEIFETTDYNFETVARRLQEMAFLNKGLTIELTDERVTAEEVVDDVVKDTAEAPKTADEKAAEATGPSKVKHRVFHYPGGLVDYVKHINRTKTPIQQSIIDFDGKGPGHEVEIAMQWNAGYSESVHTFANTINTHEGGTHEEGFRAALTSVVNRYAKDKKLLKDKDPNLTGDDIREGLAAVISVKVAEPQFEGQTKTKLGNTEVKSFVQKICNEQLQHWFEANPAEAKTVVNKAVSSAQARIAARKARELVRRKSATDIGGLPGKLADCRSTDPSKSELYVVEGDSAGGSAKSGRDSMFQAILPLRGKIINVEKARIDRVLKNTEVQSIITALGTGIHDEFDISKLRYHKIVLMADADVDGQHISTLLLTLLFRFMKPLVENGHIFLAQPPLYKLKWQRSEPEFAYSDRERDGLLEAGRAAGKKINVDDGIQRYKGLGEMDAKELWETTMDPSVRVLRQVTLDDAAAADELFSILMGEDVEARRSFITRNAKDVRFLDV

DNA gyrase subunit A/DNA gyrase subunit B, sequence (P9WG45 whole entry): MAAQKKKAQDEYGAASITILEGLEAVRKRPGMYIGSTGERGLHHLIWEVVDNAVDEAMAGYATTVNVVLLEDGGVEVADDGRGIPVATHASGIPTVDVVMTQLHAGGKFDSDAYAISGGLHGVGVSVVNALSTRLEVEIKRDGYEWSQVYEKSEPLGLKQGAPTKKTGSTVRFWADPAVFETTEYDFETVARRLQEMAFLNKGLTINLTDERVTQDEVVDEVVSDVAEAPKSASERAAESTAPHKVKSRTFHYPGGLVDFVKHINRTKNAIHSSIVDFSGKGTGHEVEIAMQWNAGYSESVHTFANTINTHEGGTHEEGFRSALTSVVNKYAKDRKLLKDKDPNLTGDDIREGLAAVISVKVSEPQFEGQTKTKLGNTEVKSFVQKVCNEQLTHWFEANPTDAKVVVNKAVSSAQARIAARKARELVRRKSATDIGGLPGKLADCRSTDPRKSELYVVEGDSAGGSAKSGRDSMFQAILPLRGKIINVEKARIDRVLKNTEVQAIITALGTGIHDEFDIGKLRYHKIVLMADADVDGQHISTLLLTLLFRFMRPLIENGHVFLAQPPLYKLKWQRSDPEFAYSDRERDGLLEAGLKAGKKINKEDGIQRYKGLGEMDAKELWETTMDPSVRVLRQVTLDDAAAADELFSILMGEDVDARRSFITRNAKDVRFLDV
DNA gyrase subunit A/DNA gyrase subunit B, sequence (P9WG47 whole entry): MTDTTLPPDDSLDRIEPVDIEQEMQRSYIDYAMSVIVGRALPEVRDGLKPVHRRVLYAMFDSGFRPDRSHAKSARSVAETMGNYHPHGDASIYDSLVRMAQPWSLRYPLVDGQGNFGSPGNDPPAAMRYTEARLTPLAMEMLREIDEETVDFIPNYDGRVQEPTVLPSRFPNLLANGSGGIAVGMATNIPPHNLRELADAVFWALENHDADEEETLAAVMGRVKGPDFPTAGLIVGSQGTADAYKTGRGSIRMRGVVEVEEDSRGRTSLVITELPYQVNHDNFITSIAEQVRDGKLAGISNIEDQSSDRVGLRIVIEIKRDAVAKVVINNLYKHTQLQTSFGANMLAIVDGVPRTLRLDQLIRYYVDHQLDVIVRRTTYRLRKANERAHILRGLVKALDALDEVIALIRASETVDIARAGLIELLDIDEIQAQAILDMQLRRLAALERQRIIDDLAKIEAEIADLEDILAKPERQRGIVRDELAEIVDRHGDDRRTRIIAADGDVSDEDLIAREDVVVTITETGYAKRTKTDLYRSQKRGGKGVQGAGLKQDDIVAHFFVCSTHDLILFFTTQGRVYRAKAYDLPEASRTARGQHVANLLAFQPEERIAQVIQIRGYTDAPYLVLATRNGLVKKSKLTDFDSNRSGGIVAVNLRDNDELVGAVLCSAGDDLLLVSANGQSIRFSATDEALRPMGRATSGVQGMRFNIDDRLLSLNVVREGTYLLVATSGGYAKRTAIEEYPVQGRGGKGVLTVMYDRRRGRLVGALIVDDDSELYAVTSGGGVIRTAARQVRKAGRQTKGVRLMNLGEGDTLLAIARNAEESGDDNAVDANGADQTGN

Row | SMILES | inhibition at 48 h, 50 µM [1] [%] | MIC [2] [µM] | IC50 [3] [µM] | IC50 [4] [µM]
1 | Cc1cc(N2CCC(NC(=S)Nc3ccc(F)cc3)CC2)c2ccccc2n1 | 32.9 | 36.1 (≈ 14.3 µg/mL) | 16.7 | 29.8
2 | CO[C@H]1/C=C/O[C@@]2(C)Oc3c(C)c(O)c4c(O)c(c(/C=N/N5CCN(C)CC5)c(O)c4c3C2=O)NC(=O)/C(C)=C\C=C\[C@H](C)[C@H](O)[C@@H](C)[C@@H](O)[C@@H](C)[C@H](OC(C)=O)[C@@H]1C [RIFAMPIN] |  | 0.23 (≈ 0.189 µg/mL) |  | 
3 | COc1ccc(NC(=S)NC2CCN(c3cc(C)nc4ccc(C(F)(F)F)cc34)CC2)cc1 | 41.8 | 66.9 (≈ 31.7 µg/mL) | 34.5 | 32.6
4 | COc1ccc(NC(=S)NC2CCN(c3cc(C)nc4ccc(F)cc34)CC2)cc1 | 21.3 | 31.7 (≈ 13.4 µg/mL) | 17.8 | 39.5
5 | Cc1ccc(NC(=O)NC2CCN(c3cc(C)nc4ccc(F)cc34)CC2)cc1 | 39.7 | 16 (≈ 6.27 µg/mL) | 8.83 | 15
6 | Cc1cc(N2CCC(NC(=O)Nc3ccc(F)cc3)CC2)c2ccccc2n1 | 49.4 | 34.1 (≈ 12.9 µg/mL) | 19.7 | 34.9
7 | COc1ccc2nc(C)cc(N3CCC(NC(=S)Nc4ccc(F)cc4)CC3)c2c1 | 29.3 | 14.7 (≈ 6.25 µg/mL) | 2.31 | 8.7
8 | Cc1cc(N2CCC(NC(=S)Nc3ccc([N+](=O)[O-])cc3)CC2)c2cc(F)ccc2n1 | 40.7 | 63.3 (≈ 27.8 µg/mL) | 25.5 | 56.1
9 | COc1ccc(NC(=S)NC2CCN(c3cc(C)nc4ccc(OC)cc34)CC2)cc1 | 31.8 | 15.8 (≈ 6.92 µg/mL) | 6.17 | 10.1
10 | Cc1cc(N2CCC(NC(=S)Nc3ccc(Cl)cc3)CC2)c2cc(C(F)(F)F)ccc2n1 | 11.8 | 30.7 (≈ 14.7 µg/mL) | 4.12 | 16.5
11 | Cc1cc(N2CCC(NC(=O)Nc3ccc(F)cc3)CC2)c2cc(C(F)(F)F)ccc2n1 | 39.8 | 24.9 (≈ 11.1 µg/mL) | 11.8 | 19.8
12 | Cc1cc(N2CCC(NC(=O)Nc3ccc([N+](=O)[O-])cc3)CC2)c2cc(F)ccc2n1 | 47.9 | 9.52 (≈ 4.03 µg/mL) | 2.14 | 6.83
13 | Cc1cc(N2CCC(NC(=O)Nc3ccc([N+](=O)[O-])cc3)CC2)c2cc(C(F)(F)F)ccc2n1 | 48.2 | 52.2 (≈ 24.7 µg/mL) | 22.3 | 47.6
14 | COc1ccc2nc(C)cc(N3CCC(NC(=O)Nc4ccc(F)cc4)CC3)c2c1 | 17.3 | 25.7 (≈ 10.5 µg/mL) | 14.8 | 18.5
15 | Cc1ccc(NC(=S)NC2CCN(c3cc(C)nc4ccc(C(F)(F)F)cc34)CC2)cc1 | 19.3 | 31.7 (≈ 14.5 µg/mL) | 5.1 | 24.7
16 | COc1ccc2nc(C)cc(N3CCC(NC(=S)Nc4ccc([N+](=O)[O-])cc4)CC3)c2c1 | 24.9 | 1.72 (≈ 0.777 µg/mL) | 0.88 | 2.5
17 | Cc1cc(N2CCC(NC(=O)Nc3ccccc3)CC2)c2ccccc2n1 | 33.9 | 25.8 (≈ 9.31 µg/mL) | 9.79 | 17.3
18 | COc1ccc(NC(=S)NC2CCN(c3cc(C)nc4ccccc34)CC2)cc1 | 21.9 | 30.2 (≈ 12.3 µg/mL) | 13.5 | 19.4
19 | COc1ccc(NC(=O)NC2CCN(c3cc(C)nc4ccccc34)CC2)cc1 | 49.5 | 32 (≈ 12.5 µg/mL) | 18.5 | 22
20 | Cc1ccc(NC(=S)NC2CCN(c3cc(C)nc4ccc(F)cc34)CC2)cc1 | 23.9 | 67.9 (≈ 27.8 µg/mL) | 25.4 | 59.3
21 | Cc1cc(N2CCC(NC(=S)Nc3ccc(Cl)cc3)CC2)c2cc(F)ccc2n1 | 32.3 | 31.7 (≈ 13.6 µg/mL) | 21.5 | 41.1
22 | COc1ccc(NC(=O)NC2CCN(c3cc(C)nc4ccc(OC)cc34)CC2)cc1 | 19.6 | 12.6 (≈ 5.29 µg/mL) | 5.86 | 9.25
23 | COc1ccc2nc(C)cc(N3CCC(NC(=O)Nc4ccc([N+](=O)[O-])cc4)CC3)c2c1 | 35 | 14.7 (≈ 6.4 µg/mL) | 5.33 | 6.99
24 | Cc1cc(N2CCC(NC(=O)Nc3ccc(F)cc3)CC2)c2cc(F)ccc2n1 | 25.4 | 3.82 (≈ 1.51 µg/mL) | 0.78 | 1.78
25 | Cc1cc(N2CCC(NC(=S)Nc3ccc([N+](=O)[O-])cc3)CC2)c2ccccc2n1 | 31.8 | 7.65 (≈ 3.22 µg/mL) | 1.21 | 3.77

Row | SMILES | inhibition at 48 h, 50 µM [1] [%] | MIC [2] [µM] | IC50 [3] [µM] | IC50 [4] [µM]
26 | Cc1ccc(NC(=S)NC2CCN(c3cc(C)nc4ccccc34)CC2)cc1 | 21.6 | 15.7 (≈ 6.12 µg/mL) | 2.66 | 7.26
27 | COc1ccc(NC(=O)NC2CCN(c3cc(C)nc4ccc(F)cc34)CC2)cc1 | 49.7 | 7.65 (≈ 3.12 µg/mL) | 7.62 | 10.1
28 | Cc1cc(N2CCC(NC(=O)Nc3ccccc3)CC2)c2cc(C(F)(F)F)ccc2n1 | 20.1 | 29.4 (≈ 12.6 µg/mL) | 8.3 | 14.9
29 | Cc1cc(N2CCC(NC(=S)Nc3ccc(F)cc3)CC2)c2cc(C(F)(F)F)ccc2n1 | 50.7 | 66.5 (≈ 30.8 µg/mL) | 22.8 | 48.5
30 | COc1ccc2nc(C)cc(N3CCC(NC(=O)Nc4ccc(Cl)cc4)CC3)c2c1 | 42.4 | 17.4 (≈ 7.37 µg/mL) | 14.3 | 16.2
31 | CO[C@@H]1[C@@H](OC(N)=O)[C@@H](O)[C@H](Oc2ccc3c(O)c(NC(=O)c4ccc(O)c(CC=C(C)C)c4)c(=O)oc3c2C)OC1(C)C [NOVOBIOCIN] |  | > 200 |  | 
32 | COc1c(N2C[C@@H]3CCCN[C@@H]3C2)c(F)cc2c(=O)c(C(=O)O)cn(C3CC3)c12 [MOXIFLOXACIN] |  | 1.26 (≈ 0.506 µg/mL) |  | > 50
33 | Cc1cc(N2CCC(NC(=O)Nc3ccc(Cl)cc3)CC2)c2cc(C(F)(F)F)ccc2n1 | 29.1 | 48.5 (≈ 22.5 µg/mL) | 17.3 | 34
34 | Cc1cc(N2CCC(NC(=S)Nc3ccc([N+](=O)[O-])cc3)CC2)c2cc(C(F)(F)F)ccc2n1 | 19.8 | 51.1 (≈ 25 µg/mL) | 7.54 | 41.8
35 | COc1ccc2nc(C)cc(N3CCC(NC(=S)Nc4ccccc4)CC3)c2c1 | 41.9 | 3.81 (≈ 1.55 µg/mL) | 0.91 | 2.14
36 | Cc1cc(N2CCC(NC(=S)Nc3ccc(F)cc3)CC2)c2cc(F)ccc2n1 | 33.9 | 63.3 (≈ 26.1 µg/mL) | 23.5 | 45.9
37 | Cc1ccc(NC(=O)NC2CCN(c3cc(C)nc4ccc(C(F)(F)F)cc34)CC2)cc1 | 16.2 | 28.1 (≈ 12.4 µg/mL) | 9.2 | 16.6
38 | COc1ccc2nc(C)cc(N3CCC(NC(=O)Nc4ccccc4)CC3)c2c1 | 66.5 | 32 (≈ 12.5 µg/mL) | 9.32 | 12.2
39 | Cc1cc(N2CCC(NC(=S)Nc3ccccc3)CC2)c2ccccc2n1 | 11.8 | 16.6 (≈ 6.25 µg/mL) | 9.4 | 12.7
40 | Cc1cc(N2CCC(NC(=O)Nc3ccc(Cl)cc3)CC2)c2cc(F)ccc2n1 | 49.7 | 50.8 (≈ 21 µg/mL) | 29.6 | 49
41 | COc1ccc(NC(=O)NC2CCN(c3cc(C)nc4ccc(C(F)(F)F)cc34)CC2)cc1 | 29 | 54.3 (≈ 24.9 µg/mL) | 19.8 | 41.2
42 | NNC(=O)c1ccncc1 [ISONIAZID] |  | 0.66 (≈ 0.0905 µg/mL) |  | 
43 | Cc1cc(N2CCC(NC(=O)Nc3ccccc3)CC2)c2cc(F)ccc2n1 | 48.9 | 33 (≈ 12.5 µg/mL) | 9.84 | 20.5
44 | Cc1cc(N2CCC(NC(=O)Nc3ccc([N+](=O)[O-])cc3)CC2)c2ccccc2n1 | 30.4 | 15.4 (≈ 6.25 µg/mL) | 10.6 | 17
45 | COc1ccc2nc(C)cc(N3CCC(NC(=O)Nc4ccc(C)cc4)CC3)c2c1 | 28.2 | 15.4 (≈ 6.25 µg/mL) | 8.63 | 11.5
46 | Cc1cc(N2CCC(NC(=O)Nc3ccc(Cl)cc3)CC2)c2ccccc2n1 | 40.1 | 7.91 (≈ 3.12 µg/mL) | 8.2 | 12.9
47 | Cc1cc(N2CCC(NC(=S)Nc3ccccc3)CC2)c2cc(C(F)(F)F)ccc2n1 | 23.3 | 35.8 (≈ 15.9 µg/mL) | 29.4 | 39
48 | Cc1cc(N2CCC(NC(=S)Nc3ccc(Cl)cc3)CC2)c2ccccc2n1 | 20.8 | 15.2 (≈ 6.25 µg/mL) | 8.12 | 12.3
49 | Cc1ccc(NC(=O)NC2CCN(c3cc(C)nc4ccccc34)CC2)cc1 | 51.4 | 24.1 (≈ 9.04 µg/mL) | 14.8 | 20.5
50 | Cc1cc(N2CCC(NC(=S)Nc3ccccc3)CC2)c2cc(F)ccc2n1 | 37.4 | 63.3 (≈ 25 µg/mL) | 39.4 | 68.2
